How the values were obtained:
EGFR-Del19/T790M/C797S = test: EGFR degradation HTRF assay in H1975-clone #28 cells; assay type: cell-based; settings: H1975-clone #28 (Del19/T790M/C797S) cells, 16 h treatment; for DC50: IC50 (DC50), read-out: DC50(nM) H1975 # 28 DTC; for Dmax (%) H1975 # 28 DTC: maximum percentage of inhibition (degradation)
Outline: (§1)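 H1975 clones with endogenous EGFR knocked out, homozygously expressing lentiviral L858R/T790M/C797S (#25) or Del19/T790M/C797S (#28), treated 16 h at 37° C with 8 doses from 10 uM, 5-fold, in 0.2% DMSO. EGFR in lysates measured by HTRF overnight; DC50 from four-parameter fit of % degradation.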

EGFR-L858R/T790M/C797S = molecular target: T1, EGFR-L858R/T790M/C797S (Homo sapiens, UniProt P00533, C797S/L858R/T790M); test: EGFR degradation HTRF assay in H1975-clone #25 cells; assay type: cell-based; settings: 16 h treatment; for DC50: H1975-clone #25 (L858R/T790M/C797S) cells, IC50 (DC50), read-out: DC50(nM) H1975 # 25-LTC; for Dmax: NCI-H1975, H1975-clone #25 (L858R/T790M/C797S) cells, maximum percentage of inhibition (degradation), read-out: Dmax (%) H1975 # 25-LTC
T1 construct: expressed in transfected cells; host or cells: H1975-clone #25 (lentiviral over-expression, endogenous EGFR knocked out)
Outline: as §1

T1 sequence (P00533 25-1210 T790M/C797S/L858R): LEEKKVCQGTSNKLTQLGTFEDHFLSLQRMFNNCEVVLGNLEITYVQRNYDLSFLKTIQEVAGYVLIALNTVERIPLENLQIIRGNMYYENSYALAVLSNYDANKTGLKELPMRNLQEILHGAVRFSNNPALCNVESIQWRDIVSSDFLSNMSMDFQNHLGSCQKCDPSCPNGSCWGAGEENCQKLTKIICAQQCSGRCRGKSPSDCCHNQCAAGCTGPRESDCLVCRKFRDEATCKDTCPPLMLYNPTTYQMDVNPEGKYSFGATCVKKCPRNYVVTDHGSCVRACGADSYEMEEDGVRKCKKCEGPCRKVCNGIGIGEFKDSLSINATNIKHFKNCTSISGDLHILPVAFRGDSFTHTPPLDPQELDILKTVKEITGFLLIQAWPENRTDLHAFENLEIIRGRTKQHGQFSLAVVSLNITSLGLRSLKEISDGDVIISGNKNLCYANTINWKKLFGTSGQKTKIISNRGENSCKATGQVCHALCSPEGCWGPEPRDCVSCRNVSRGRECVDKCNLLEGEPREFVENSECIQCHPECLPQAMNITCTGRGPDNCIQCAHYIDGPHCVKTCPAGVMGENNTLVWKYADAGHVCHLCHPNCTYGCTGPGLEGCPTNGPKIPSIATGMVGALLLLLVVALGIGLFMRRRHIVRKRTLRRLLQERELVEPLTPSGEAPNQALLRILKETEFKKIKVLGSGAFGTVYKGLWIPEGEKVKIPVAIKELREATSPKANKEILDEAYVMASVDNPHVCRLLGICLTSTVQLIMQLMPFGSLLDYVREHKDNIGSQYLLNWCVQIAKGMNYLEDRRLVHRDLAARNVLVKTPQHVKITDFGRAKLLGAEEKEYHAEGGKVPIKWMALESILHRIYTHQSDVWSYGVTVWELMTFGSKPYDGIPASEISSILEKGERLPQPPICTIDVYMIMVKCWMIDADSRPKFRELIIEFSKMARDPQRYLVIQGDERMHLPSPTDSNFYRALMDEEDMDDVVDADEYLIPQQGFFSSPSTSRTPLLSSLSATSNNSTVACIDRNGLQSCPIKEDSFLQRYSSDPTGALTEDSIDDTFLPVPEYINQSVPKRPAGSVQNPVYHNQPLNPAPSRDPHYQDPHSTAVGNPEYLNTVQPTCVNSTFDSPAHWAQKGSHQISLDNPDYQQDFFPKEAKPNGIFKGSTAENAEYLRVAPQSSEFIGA

DC50 (EGFR-Del19/T790M/C797S) [nM]	DC50 (EGFR-L858R/T790M/C797S) [nM]	Dmax (EGFR-L858R/T790M/C797S) [%]	Compound	Dmax (%) H1975 # 28 DTC (EGFR-Del19/T790M/C797S) [%]
3.3	8.2	85	CCc1cc(Nc2ncc(Br)c(Nc3ccc4nc(C)c(F)cc4c3P(C)(C)=O)n2)c(OC)cc1N1CCC2(CC1)CCN(C1CCN(c3ccc4c(c3)C(=O)N(C3CCC(=O)NC3=O)C4=O)CC1)CC2 (stereo not shown) [Example 92, 5-(4-(9-(4-((5-bromo-4-((5-(dimethylphosphoryl)-3-fluoro-2-methylquinolin-6-yl)amino)pyrimidin-2-yl)amino)-2-ethyl-5-methoxyphenyl)-3,9-diazaspiro[5.5]undecan-3-yl)piperidin-1-yl)-2-(2,6-dioxopiperidin-3-yl)isoindoline-1,3-dione]	67
2.4	6	86	CCc1ncc2c(P(C)(C)=O)c(Nc3nc(Nc4cc(CC)c(N5CCC6(CCN(CCc7cc(F)c([C@H]8CCC(=O)NC8=O)c(F)c7)CC6)CC5)cc4OC)ncc3Br)ccc2n1 [Example 40, (R)-3-(4-(2-(9-(4-((5-bromo-4-((5-(dimethylphosphoryl)-2-ethylquinazolin-6-yl)amino)pyrimidin-2-yl)amino)-2-ethyl-5-methoxyphenyl)-3,9-diazaspiro[5.5]undecan-3-yl)ethyl)-2,6-difluorophenyl)piperidine-2,6-dione]	88
5.6	2.4	92	CCc1ncc2c(P(C)(C)=O)c(Nc3nc(Nc4cc(CC)c(N5CCC(N6CC(CN7CCC(c8cc(F)c([C@H]9CCC(=O)NC9=O)c(F)c8)CC7)C6)CC5)cc4OC)ncc3Br)ccc2n1 [Example 55, (R)-3-(4-(1-((1-(1-(4-((5-bromo-4-((5-(dimethylphosphoryl)-2-ethylquinazolin-6-yl)amino)pyrimidin-2-yl)amino)-2-ethyl-5-methoxyphenyl)piperidin-4-yl)azetidin-3-yl)methyl)piperidin-4-yl)-2,6-difluorophenyl)piperidine-2,6-dione]	91
1.8	0.9	94	CCc1ccc2c(P(C)(C)=O)c(Nc3nc(Nc4cc(CC)c(N5CCC(N6CCC(N7CCN(c8cc(F)c([C@H]9CCC(=O)NC9=O)c(F)c8)CC7)CC6)CC5)cc4OC)ncc3Br)ccc2n1 (single isomer, unassigned) [Example 11]	88
3.1	3.7	92	CCc1cc(Nc2ncc(Br)c(Nc3ccc4nc(C)c(F)cc4c3P(C)(C)=O)n2)c(OC)cc1N1CCC2(CC1)CCN(C1CC(c3cc(F)c([C@H]4CCC(=O)NC4=O)c(F)c3)C1)CC2 (single isomer, unassigned) [Example 5]	90
1.9	2.8	95	CCc1ncc2c(P(C)(C)=O)c(Nc3nc(Nc4cc(CC)c(N5CCC6(CC5)CCN(C5CCN(c7cc(F)c([C@H]8CCC(=O)NC8=O)c(F)c7)CC5)CC6)cc4OC)ncc3Br)ccc2n1 [Example 3, (R)-3-(4-(4-(9-(4-((5-bromo-4-((5-(dimethylphosphoryl)-2-ethylquinazolin-6-yl)amino)pyrimidin-2-yl)amino)-2-ethyl-5-methoxyphenyl)-3,9-diazaspiro[5.5]undecan-3-yl)piperidin-1-yl)-2,6-difluorophenyl)piperidine-2,6-dione]	91
1.9	5.4	74	CCc1cc(Nc2ncc(Cl)c(Nc3ccc4nc(C)c(F)cc4c3P(C)(C)=O)n2)c(OC)cc1N1CC2(CN(CC3CN(c4cc(F)c([C@H]5CCC(=O)NC5=O)c(F)c4)C3)C2)C1 [Example 78]	90

Source: patent publication US20240368203A1, “DEGRADATION OF (EGFR) BY CONJUGATION OF EGFR INHIBITORS WITH E3 LIGASE LIGAND AND METHODS OF USE” (BeiGene, Ltd., priority 2022, published 2024)
